# From ChEMBL document CHEMBL4138088, “Novel 1-(7-ethoxy-1-benzofuran-2-yl) substituted chalcone derivatives: Synthesis, characterization and anticancer activity” (Eur J Med Chem, 2017)
# Active and inactive are the calls of the source. The rule behind the calls is not given here.
# Legend:
# A549 [1] = assay: Induction of apoptosis in human A549 cells assessed as viable cells at 20 uM after 48 hrs by caspase 3/7 staining-based flow cytometry (reference value: 94.25%); type: functional; conditions: A549, 48 h, read-out: Activity
# PC-3 [2] = assay: Induction of apoptosis in human PC3 cells assessed as late apoptotic cells at 20 uM after 48 hrs by annexin V-propidium iodide staining-based flow cytometry (reference value: 1.45%); type: functional
# A549 [3] = assay: Induction of apoptosis in human A549 cells assessed as early apoptotic cells at 20 uM after 48 hrs by caspase 3/7 staining-based flow cytometry (reference value: 1.70%); type: functional
# MCF7 [4] = assay: Induction of ROS generation in human MCF7 cells assessed as accumulation at M2 phase at 20 uM after 48 hrs flow cytometry (reference value: 2.33%); type: functional
# PC-3 [5] = assay: Induction of ROS generation in human PC3 cells assessed as accumulation at M1 phase at 20 uM after 48 hrs flow cytometry (reference value: 99.67%); type: functional
# MCF7 [6] = assay: Growth inhibition of human MCF7 cells at 20 uM after 72 hrs by ATP bioluminescence assay; type: functional, cell-based
# PC-3 [7] = assay: Induction of mitochondrial membrane depolarization in human PC3 cells assessed as dead cells at 20 uM after 48 hrs by 7-AAD/Muse mito-potential dye-based assay (reference value: 2.20%); type: functional
# PC-3 [8] = assay: Induction of mitochondrial membrane depolarization in human PC3 cells assessed as live cells at 20 uM after 48 hrs by 7-AAD/Muse mito-potential dye-based assay (reference value: 83.15%); type: functional
# PC-3 [9] = assay: Induction of apoptosis in human PC3 cells assessed as early apoptotic cells at 20 uM after 48 hrs by caspase 3/7 staining-based flow cytometry (reference value: 0.3%); type: functional
# MCF7 [10] = assay: Induction of apoptosis in human MCF7 cells assessed as necrotic cells at 20 uM after 48 hrs by caspase 3/7 staining-based flow cytometry (reference value: 1.25%); type: functional
# A549 [11] = assay: Growth inhibition of human A549 cells after 72 hrs by ATP bioluminescence assay; type: functional, cell-based; conditions: A549, 72 h
# MCF7 [12] = assay: Growth inhibition of human MCF7 cells at 20 uM after 72 hrs by SRB assay; type: functional, cell-based
# A549 [13] = assay: Induction of mitochondrial membrane depolarization in human A549 cells assessed as depolarized live cells at 20 uM after 48 hrs by 7-AAD/Muse mito-potential dye-based assay (reference value: 3.84%); type: functional
# MCF7 [14] = assay: Induction of apoptosis in human MCF7 cells assessed as late apoptotic cells at 20 uM after 48 hrs by annexin V-propidium iodide staining-based flow cytometry (reference value: 7.25%); type: functional
# MCF7 [15] = assay: Induction of apoptosis in human MCF7 cells assessed as late apoptotic cells at 20 uM after 48 hrs by caspase 3/7 staining-based flow cytometry (reference value: 10.80%); type: functional
# MCF7 [16] = assay: Induction of apoptosis in human MCF7 cells assessed as early apoptotic cells at 20 uM after 48 hrs by caspase 3/7 staining-based flow cytometry (reference value: 2.65%); type: functional
# PC-3 [17] = assay: Induction of morphological changes in human PC3 cells assessed as reduction in cell density at 20 uM after 72 hrs by phase contrast microscopic method; type: functional, cell-based
# PC-3 [18] = assay: Induction of apoptosis in human PC3 cells assessed as viable cells at 20 uM after 48 hrs by caspase 3/7 staining-based flow cytometry (reference value: 94.75%); type: functional; conditions: PC-3, 48 h, read-out: Activity
# A549 [19] = assay: Induction of apoptosis in human A549 cells assessed as viable cells at 20 uM after 48 hrs by annexin V-propidium iodide staining-based flow cytometry (reference value: 91.80%); type: functional; conditions: A549, 48 h, read-out: Activity
# MCF7 [20] = assay: Induction of apoptosis in human MCF7 cells assessed as viable cells at 20 uM after 48 hrs by annexin V-propidium iodide staining-based flow cytometry (reference value: 90.25%); type: functional; conditions: MCF7, 48 h, read-out: Activity
# PC-3 [21] = assay: Growth inhibition of human PC3 cells at 20 uM after 72 hrs by ATP bioluminescence assay; type: functional, cell-based
# MCF7 [22] = assay: Induction of mitochondrial membrane depolarization in human MCF7 cells assessed as live cells at 20 uM after 48 hrs by 7-AAD/Muse mito-potential dye-based assay (reference value: 78.59%); type: functional
# A549 [23] = assay: Growth inhibition of human A549 cells at 20 uM after 72 hrs by SRB assay; type: functional, cell-based
# PC-3 [24] = assay: Induction of apoptosis in human PC3 cells assessed as necrotic cells at 20 uM after 48 hrs by caspase 3/7 staining-based flow cytometry (reference value: 3.05%); type: functional
# PC-3 [25] = assay: Induction of mitochondrial membrane depolarization in human PC3 cells assessed as depolarized dead cells at 20 uM after 48 hrs by 7-AAD/Muse mito-potential dye-based assay (reference value: 2.05%); type: functional
# A549 [26] = assay: Induction of apoptosis in human A549 cells assessed as late apoptotic cells at 20 uM after 48 hrs by caspase 3/7 staining-based flow cytometry (reference value: 2.56%); type: functional
# MCF7 [27] = assay: Growth inhibition of human MCF7 cells after 72 hrs by ATP bioluminescence assay; type: functional, cell-based; conditions: MCF7, 72 h
# PC-3 [28] = assay: Induction of apoptosis in human PC3 cells assessed as necrotic cells at 20 uM after 48 hrs by annexin V-propidium iodide staining-based flow cytometry (reference value: 2.45%); type: functional
# MCF7 [29] = assay: Induction of morphological changes in human MCF7 cells assessed as reduction in cell density at 20 uM after 72 hrs by phase contrast microscopic method; type: functional, cell-based
# PC-3 [30] = assay: Induction of apoptosis in human PC3 cells assessed as viable cells at 20 uM after 48 hrs by annexin V-propidium iodide staining-based flow cytometry (reference value: 94.55%); type: functional; conditions: PC-3, 48 h, read-out: Activity
# A549 [31] = assay: Induction of apoptosis in human A549 cells assessed as early apoptotic cells at 20 uM after 48 hrs by annexin V-propidium iodide staining-based flow cytometry (reference value: 3.75%); type: functional
# PC-3 [32] = assay: Growth inhibition of human PC3 cells after 72 hrs by ATP bioluminescence assay; type: functional, cell-based; conditions: PC-3, 72 h
# A549 [33] = assay: Induction of ROS generation in human A549 cells assessed as accumulation at M2 phase at 20 uM after 48 hrs flow cytometry (reference value: 1.07%); type: functional
# A549 [34] = assay: Induction of ROS generation in human A549 cells assessed as accumulation at M1 phase at 20 uM after 48 hrs flow cytometry (reference value: 97.60%); type: functional
# A549 [35] = assay: Induction of mitochondrial membrane depolarization in human A549 cells assessed as live cells at 20 uM after 48 hrs by 7-AAD/Muse mito-potential dye-based assay (reference value: 85.84%); type: functional
# MCF7 [36] = assay: Induction of apoptosis in human MCF7 cells assessed as early apoptotic cells at 20 uM after 48 hrs by annexin V-propidium iodide staining-based flow cytometry (reference value: 2.15%); type: functional
# PC-3 [37] = assay: Induction of ROS generation in human PC3 cells assessed as accumulation at M2 phase at 20 uM after 48 hrs flow cytometry (reference value: 0.33%); type: functional
# MCF7 [38] = assay: Induction of mitochondrial membrane depolarization in human MCF7 cells assessed as dead cells at 20 uM after 48 hrs by 7-AAD/Muse mito-potential dye-based assay (reference value: 2.30%); type: functional
# PC-3 [39] = assay: Induction of apoptosis in human PC3 cells assessed as early apoptotic cells at 20 uM after 48 hrs by annexin V-propidium iodide staining-based flow cytometry (reference value: 1.55%); type: functional
# MCF7 [40] = assay: Induction of mitochondrial membrane depolarization in human MCF7 cells assessed as depolarized live cells at 20 uM after 48 hrs by 7-AAD/Muse mito-potential dye-based assay (reference value: 6.67%); type: functional
# A549 [41] = assay: Induction of mitochondrial membrane depolarization in human A549 cells assessed as dead cells at 20 uM after 48 hrs by 7-AAD/Muse mito-potential dye-based assay (reference value: 2.44%); type: functional
# A549 [42] = assay: Induction of apoptosis in human A549 cells assessed as late apoptotic cells at 20 uM after 48 hrs by annexin V-propidium iodide staining-based flow cytometry (reference value: 3.05%); type: functional
# A549 [43] = assay: Induction of apoptosis in human A549 cells assessed as necrotic cells at 20 uM after 48 hrs by annexin V-propidium iodide staining-based flow cytometry (reference value: 1.4%); type: functional
# MCF7 [44] = assay: Induction of apoptosis in human MCF7 cells assessed as necrotic cells at 20 uM after 48 hrs by annexin V-propidium iodide staining-based flow cytometry (reference value: 0.35%); type: functional
# A549 [45] = assay: Induction of mitochondrial membrane depolarization in human A549 cells assessed as depolarized dead cells at 20 uM after 48 hrs by 7-AAD/Muse mito-potential dye-based assay (reference value: 7.88%); type: functional
# PC-3 [46] = assay: Induction of apoptosis in human PC3 cells assessed as late apoptotic cells at 20 uM after 48 hrs by caspase 3/7 staining-based flow cytometry (reference value: 1.90%); type: functional
# PC-3 [47] = assay: Induction of mitochondrial membrane depolarization in human PC3 cells assessed as depolarized live cells at 20 uM after 48 hrs by 7-AAD/Muse mito-potential dye-based assay (reference value: 12.60%); type: functional
# A549 [48] = assay: Induction of apoptosis in human A549 cells assessed as necrotic cells at 20 uM after 48 hrs by caspase 3/7 staining-based flow cytometry (reference value: 1.50%); type: functional
# MCF7 [49] = assay: Induction of ROS generation in human MCF7 cells assessed as accumulation at M1 phase at 20 uM after 48 hrs flow cytometry (reference value: 97.67%); type: functional
# A549 [50] = assay: Growth inhibition of human A549 cells at 20 uM after 72 hrs by ATP bioluminescence assay; type: functional, cell-based
# MCF7 [51] = assay: Induction of apoptosis in human MCF7 cells assessed as viable cells at 20 uM after 48 hrs by caspase 3/7 staining-based flow cytometry (reference value: 85.30%); type: functional; conditions: MCF7, 48 h, read-out: Activity
# MCF7 [52] = assay: Induction of mitochondrial membrane depolarization in human MCF7 cells assessed as depolarized dead cells at 20 uM after 48 hrs by 7-AAD/Muse mito-potential dye-based assay (reference value: 12.43%); type: functional
# A549 [53] = assay: Induction of morphological changes in human A549 cells assessed as reduction in cell density at 20 uM after 72 hrs by phase contrast microscopic method; type: functional, cell-based
# HCT-116 = assay: Antiproliferative activity against human HCT116 cells after 48 hrs by MTT assay; type: functional, cell-based; conditions: HCT-116, 48 h
# CT26.WT = assay: Antiproliferative activity against mouse CT26.WT cells after 48 hrs by MTT assay; type: functional, cell-based
# SW-620 = assay: Antiproliferative activity against human SW620 cells after 48 hrs by MTT assay; type: functional, cell-based; conditions: SW-620, 48 h
# PC-3 [54] = assay: Growth inhibition of human PC3 cells at 20 uM after 72 hrs by SRB assay; type: functional, cell-based
smiles,measurement,setting,value
CCOc1cccc2cc(C(=O)/C=C/c3ccc(N(C)C)cc3)oc12,viability at 20 µM,A549 [1],23.1%
same,Activity,PC-3 [2],59.7%
same,Activity,A549 [3],7.75%
same,Activity,MCF7 [4],14.87%
same,Activity,PC-3 [5],98.83%
same,growth inhibition (GI),MCF7 [6],Active
same,Activity,PC-3 [7],19.15%
same,Activity,PC-3 [8],31.75%
same,Activity,PC-3 [9],0.65%
same,Activity,MCF7 [10],0.26%
same,IC50,A549 [11],9 µM
same,growth inhibition (GI),MCF7 [12],Active
same,Activity,A549 [13],50.57%
same,Activity,MCF7 [14],91.7%
same,Activity,MCF7 [15],41%
same,Activity,MCF7 [16],45%
same,Activity,PC-3 [17],Active
same,viability at 20 µM,PC-3 [18],51%
same,viability at 20 µM,A549 [19],2.8%
same,viability at 20 µM,MCF7 [20],3.3%
same,growth inhibition (GI),PC-3 [21],Active
same,Activity,MCF7 [22],24.3%
same,growth inhibition (GI),A549 [23],Active
same,Activity,PC-3 [24],37.25%
same,Activity,PC-3 [25],18.6%
same,Activity,A549 [26],58.7%
same,IC50,MCF7 [27],2 µM
same,Activity,PC-3 [28],6.9%
same,Activity,MCF7 [29],Active
same,viability at 20 µM,PC-3 [30],26.9%
same,Activity,A549 [31],1.8%
same,IC50,PC-3 [32],10 µM
same,Activity,A549 [33],20.67%
same,Activity,A549 [34],79.33%
same,Activity,A549 [35],15.29%
same,Activity,MCF7 [36],4.3%
same,Activity,PC-3 [37],1.17%
same,Activity,MCF7 [38],54.3%
same,Activity,PC-3 [39],6.45%
same,Activity,MCF7 [40],7.9%
same,Activity,A549 [41],1.35%
same,Activity,A549 [42],95.2%
same,Activity,A549 [43],0.2%
same,Activity,MCF7 [44],0.7%
same,Activity,A549 [45],32.78%
same,Activity,PC-3 [46],11.1%
same,Activity,PC-3 [47],30.5%
same,Activity,A549 [48],10.5%
same,Activity,MCF7 [49],85.13%
same,growth inhibition (GI),A549 [50],Active
same,viability at 20 µM,MCF7 [51],13.8%
same,Activity,MCF7 [52],13.5%
same,Activity,A549 [53],Active
COc1ccccc1/C=C/C(=O)c1ccc(O)c(O)c1,IC50,HCT-116,25.9 µM
same,IC50,CT26.WT,3.36 µM
same,IC50,SW-620,11.7 µM
CCOc1cccc2cc(C(=O)/C=C/c3ccco3)oc12,growth inhibition (GI),MCF7 [6],Active
same,growth inhibition (GI),MCF7 [12],Active
CCOc1cccc2cc(C(=O)/C=C/c3cc(OC)c(OC)cc3OC)oc12,growth inhibition (GI),MCF7 [6],Active
same,growth inhibition (GI),MCF7 [12],Active
same,growth inhibition (GI),PC-3 [21],Active
same,growth inhibition (GI),PC-3 [54],Active
